Assay results taken from patent publication US10350334B2, “Catheter locking solution having antimicrobial and anticoagulation properties” (Becton, Dickinson and Company, priority 2009, dated 2019).

Legend:
P. aeruginosa = assay: Minimum Biofilm Inhibitory Concentration (MBIC) test; format: cell-based, Pseudomonas aeruginosa; conditions: for MBIC: adhered cells, 24 hours incubation; for MBIC Assuming 2 mL lock volume: amount in 2 mL lock volume
Experimental: (§1) To further evaluate the efficacy of local anesthetics in antimicrobial lock solutions of the present invention, the minimum concentration at which these drugs can inhibit biofilm growth was tested. The local anesthetics identified in Table 4 were tested against three different species of bacteria identified in Table 3 to assess the antimicrobial efficacy against adhered microbes. It is known that adhered microbes, or biofilms, can be more resistant to antimicrobials than planktonic cells.
(§2) Experiments were conducted against adhered microbes as follows: first, a test tube containing 10 mL of sterile TSB was inocubated with BD BBL™ Qualiswab™, with the strain of interest. The tube was placed in an incubator at 37° C. overnight. The next day, a flask containing 25 mL of sterile TSB (or Sabouraud Dextrose Broth (SDB) for fungal species) was inoculated with 1 mL of bacterial suspension. The flask was placed in an incubator at 37° C. and shaken at 150 RPM. The next day a new flask containing 25 mL of TSB (or SDB) media was inoculated with 1 mL from the previous culture. The bacterial or fungal species were allowed to grow to log phase.
(§3) After the microbes entered the log phase, their concentration was checked to ensure that they had reached a minimum of 1×10^8 CFU/mL per a 0.5 MacFarland standard. Microbes were diluted to a concentration of 1×10^5 CFU/mL using a nephelometer and 200 μL of the microbial suspensions were plated on each of the wells of a 96 well plate. The plate was incubated in a standard incubator at 37° C. for 2 hours to allow for microbial cell adhesion. Next, dilutions of the desired concentrations of antimicrobials were prepared. In a separate, blank plate, 1:2 serial dilutions were prepared with the highest concentration of the antimicrobial to the left of the plate, decreasing in concentration towards the right of the plate. For example, 170 μL of the highest concentration of an antimicrobial was dispensed in column 1 (left of plate). Each of the rest of the columns received 170 μL of saline. Column 2 received 170 μL of antimicrobial, making for a 1:2 dilution (or 50% of original concentration). Contents of Column 2 were then transferred to 3, then from 3 to 4, and so forth. Each well was supplemented with 20% media (TSB for S. epidermidis and P. aeruginosa and SDB for C. albicans), thereby ensuring the viability of the cells over the test time period (24 hours). Positive control wells had 20% media in saline. The bacterial plate was removed from the incubator, and bacterial suspension discarded (adhered cells remain on plate). The antimicrobial formulations identified in Table 4 were then added to the bacterial plate and incubated in a standard incubator at 37° C. for 24 hours. After this time period, solutions in the plate were discarded and plates were rinsed with 200 μL of saline. The cells were then fixed with 200 μL of 95% ethanol for 30 minutes, and allowed to air dry for 10 minutes. Next, the cells were stained for 20 minutes with 250 μL of a filtered solution of 2% crystal violet dye. The plates were then rinsed three times with water, and the 2% crystal violet dye was solubilized with 300 μL of 95% ethanol. The plates were allowed to stand for 10 minutes to complete solubilization and then the plates were read on a spectrophotometer at 570 nm absorbance, wherein high absorbance readings of >0.600 indicated microbial growth. Columns in the plate that had no growth were recorded as the […] (MBIC). FIG. 2 illustrates the MBIC corresponding to the specific local anesthetics.

[1] = test system: Staphylococcus epidermidis biofilm; assay: Catheter biofilm eradication (catheter segment test) on silicone tubing; format: cell-based; conditions: 1 hour, silicone catheter segments
Experimental: (§4) To understand the antimicrobial effects of the local anesthetics used in the lock solution of the present invention in a clinical setting, a biofilm was grown on silicone catheter-like tubing and treated with various concentrations of local anesthetics. First, a sterile silicone catheter-like tube containing 10 mL TSB media was inoculated with a BD BBL™ Qualiswab™, and placed in an incubator at 37° C. overnight. The next day, a sterile flask containing 25 mL TSB (for bacterial species) or 25 mL SDB (for fungal species) was inoculated with the cultured cells. The morning of the experiment, a new flask containing 25 mL of media was inoculated with the new overnight suspension. These steps were taken to ensure that cells were in the log phase, which for S. epidermidis was ˜3-4 hours, and for C. albicans was around ˜18 hrs. […] Microbial concentrations were adjusted to 1×10^5 CFU/mL by dilution with appropriate media. Silicone catheter-like tubing was terminally sterilized by autoclaving the tube for 45 minutes at 121° C. The sterilized catheter-like tubing was inoculated with 1×10^5 CFU/mL for 2 hours under continuous flow. Continuous flow was created by using a peristaltic pump, in which bacterial suspension was flowed through the catheter segments into a waste reservoir. After the 2 hour time period, the same set up was used to pump TSB media through the tubing for an additional 24 hours to allow biofilm to form on the walls of the catheter lumen. After 24 hours, sterilized saline was pumped through the lumen for 30 minutes to rinse the catheters. Catheters were then cut into 1 inch segments using sterile techniques. Catheter segments were dropped into sterile tubes containing 4 mL of antimicrobials, and incubated in a 37° C. incubator shaker for 1 hour. Segments were removed from treatment tubes and placed into new tubes filled with 6 mL of sterile saline. Each segment was swabbed with a sterile swab and both the tube and the swab were sonicated (Ultrasonic cleaner VWR Model 250T) for 3 minutes. Tubes and swabs were then vortexed (Fisher Scientific Vortex Mixer #02-215-365) for 30 seconds each. One hundred microliters of suspension was plated onto TSB agar plates (SDB for fungal species). The remaining 5.9 mL of suspension was passed through 0.4 μm filters and filters were placed on TSB plates. This step was taken to ensure that all possible bacteria were being recovered. All TSB plates were then incubated at 37° C. in a static incubator for 24-48 hours, at which time colony forming units were counted.

Candida albicans biofilm = assay: as above; format: cell-based; conditions: 1 hour, silicone catheter segments
Experimental: as §4

C. albicans = assay: Minimum Biofilm Inhibitory Concentration (MBIC) test; format: cell-based, Candida albicans; conditions: for MBIC: adhered cells, 24 hours incubation; for MBIC Assuming 2 mL lock volume: amount in 2 mL lock volume
Experimental: as §1, §2, §3

| Structure (SMILES) | MBIC (P. aeruginosa; HCl) | MBIC (P. aeruginosa; listed as tetracaine, HCl) | MBIC Assuming 2 mL lock volume (P. aeruginosa) | Log reduction of established biofilm ([1]; 30 mg/mL) | eradication of established biofilm (Candida albicans biofilm; 30 mg/mL) | MBIC (C. albicans) | MBIC Assuming 2 mL lock volume (C. albicans) | MBIC (P. aeruginosa) | Log reduction of established biofilm ([1]; 16 mg/mL) | Log reduction of established biofilm (Candida albicans biofilm) |
| --- | --- | --- | --- | --- | --- | --- | --- | --- | --- | --- |
| CCCCNc1ccc(C(=O)OCCN(C)C)cc1.Cl [Tetracaine, Tetracaine HCl] | 6.41 mg/mL | 1.88 mg/mL | 12.82 mg | 1.7 Log | completely eradicated | 0.24 mg/mL | 0.48 mg |  |  |  |
| CCCCN1CCCCC1C(=O)Nc1c(C)cccc1C.Cl (stereo not shown) [Bupivacaine, Bupivacaine HCl] |  |  | 32.5 mg |  |  | No inhibition | No inhibition | 16.25 mg/mL | ~0.5 Log | ~1 Log |
